Entries after “also recorded” stand apart in the source; their conditions may differ.
Legend:
NCI-H292 cells = experiment: TLR3 expression by intracellular staining and flow cytometry; type: cell-based, human; settings: 7 days of culture with paclitaxel 4 nM, anti-TLR3.1 antibody, FIG. 4
Experimental: To ascertain that TLR3 expression was not lost upon senescence, Paclitaxel-Treated Cells were harvested, fixed and permeabilized with the Cytoperm/Cytofix kit (Becton Dickinson), then stained at 4° C. for TLR3 (anti-TLR3.1 antibody (Dendritics)+goat anti-mouse Alexa 647) and analyzed on a Becton Disckison FACSCalibur flow cytometer.

[1] = tested on: NCI-H292 human Non-Small-Cell Cancer Cells; experiment: Senescence status of Paclitaxel-Treated Cells (phase-contrast morphology, SA-β-GAL, IL-8); type: cell-based; settings: 4 nM paclitaxel
Experimental: (§1) NCI-H292 human Non-Small-Cell Cancer Cells were plated at 5000 cells/cm^2 in a 6-well plate in RPMI supplemented with 10% FCS and 1% Hepes/1% NAPy/PS. They were treated after 16-24 hours of plating and for 7 to 10 days with 4 nM paclitaxel (Sigma) or with DMSO (“solvent”), with a change of medium on day 4. The following tests were then performed to ascertain the Paclitaxel-Treated Cells' senescence status.
(§2) 1) An inverted phase-contrast light microscope was used at 40× magnification to evaluate morphology of the Paclitaxel-Treated Cells. […] 2) The senescence-associated β-galactosidase [SA-β-GAL] activity was measured in the Paclitaxel-Treated Cells described above using the Senescence beta-galactosidase Staining Kit (Cell Signaling Technology) (FIG. 2). 3) The secretion of IL-8 as part of the senescence-associated secretome (Tchkonia et al., 2013; J Clin Invest. 123(3):966-72) was quantified in the culture supernatant of the Paclitaxel-Treated Cells using an ELISA kit (Biolegend Kit hulL8), and read on a TECAN microplate reader).

[2] = tested on: NCI-H292 human Non-Small-Cell Cancer Cells; experiment: IL-8 secretion in culture supernatant by ELISA; type: cell-based; settings: 4 nM paclitaxel, 1, 3 or 7 days, last 24H of culture, FIG. 3
Experimental: NCI-H292 human Non-Small-Cell Cancer Cells were plated at 5000 cells/cm^2 in a 6-well plate in RPMI supplemented with 10% FCS and 1% Hepes/1% NAPy/PS. […] The following tests were then performed to ascertain the Paclitaxel-Treated Cells' senescence status.
as §2

[3] = tested on: Untreated or Oxidative Stress-induced Senescent WT and TLR3 KO NCI-H292 Cells; experiment: TLR3-triggered apoptosis (Annexin V-FITC flow cytometry) in Oxidative Stress-induced Senescent Cells; type: cell-based, human; settings: 10 μg/ml Poly(I:C), 24 hours, senescence by 300 μM H2O2 vs untreated NCI-H292, FIG. 7
Experimental: NCI-H292 human Non-Small-Cell Cancer Cells were plated at 5000 cells/cm^2 in a 6-well plate in RPMI supplemented with 10% FCS and 1% Hepes/1% NAPy/PS. They were treated with 300 μM H2O2 16 hours after plating, and the medium was changed 1 hour after H2O2 treatment.
(§3) Oxidative Stress-induced Senescent Cells' susceptibility to TLR3-triggered apoptosis was measured. Untreated or Oxidative Stress-induced Senescent WT and TLR3 KO NCI-H292 Cells were incubated for 24 hours with 10 μg/ml Poly(I:C) (Invivogen), then cells were stained at 4° C. with Annexin V-FITC (Biolegend) and analyzed on a Becton Disckison FACSCalibur flow cytometer.

[4] = tested on: Untreated or Radiation-Induced Senescent WT and TLR3 KO NCI-H292 Cells; experiment: TLR3-triggered apoptosis (Annexin V-FITC PI flow cytometry) in Radiation-Induced Senescent Cells; type: cell-based, human; settings: 10 μg/ml Poly(I:C), 24 hours, senescence by 8 Grey irradiation vs untreated NCI-H292, FIG. 6
Experimental: NCI-H292 human Non-Small-Cell Cancer Cells were plated at 5000 cells/cm^2 in a 6-well plate in RPMI supplemented with 10% FCS and 1% Hepes/1% NAPy/PS. They were irradiated with 8 Grey 16 hours after plating, and the medium was changed right after irradiation.
as §3, with “Radiation-Induced” for “Oxidative Stress-induced”, “V-FITC PI” for “V-FITC”

[5] = tested on: TLR3 WT and TLR3 KO NCI-H292 untreated or Paclitaxel-Treated Cells; experiment: TLR3-triggered apoptosis (Annexin V-FITC/PI flow cytometry) in Paclitaxel-Treated Cells; type: cell-based, human; settings: 4 μg/ml Poly(I:C), 24 hours, paclitaxel-induced senescent vs untreated NCI-H292, FIG. 5
Experimental: as §1
TLR3 WT and TLR3 KO NCI-H292 untreated or Paclitaxel-Treated Cells were incubated for 24 hours with 4 μg/ml Poly(I:C) (Invivogen), then cells were stained at 4° C. with Annexin V-FITC and PI (Biolegend) and analyzed on a Becton Disckison FACSCalibur flow cytometer.

Compound | expression of TLR3 by NCI-H292 cells (NCI-H292 cells) | morphology of the Paclitaxel-Treated Cells (observed changes) ([1]; 7 to 10 days, NCI-H292, phase-contrast microscopy 40x, FIG. 1) | senescence status of the cells ([1]; NCI-H292, FIGS. 1-3) | secretion of IL-8 in the culture supernatant [2] | susceptibility to TLR3-triggered apoptosis [3] | susceptibility to TLR3-triggered apoptosis [4] | susceptibility to TLR3-triggered apoptosis [5]
CC(=O)O[C@H]1C(=O)[C@@]2(C)[C@H]([C@H](OC(=O)c3ccccc3)[C@]3(O)C[C@H](OC(=O)[C@H](O)[C@@H](NC(=O)c4ccccc4)c4ccccc4)C(C)=C1C3(C)C)[C@]1(OC(C)=O)CO[C@@H]1C[C@@H]2O [Paclitaxel, paclitaxel] | increased | a stop in cell division and enlargement in size | have become senescent | Large amounts of IL-8 | – | – | –
Polyinosine-polycytidylic acid [Poly(I:C)] | – | – | – | – | induces apoptosis; also recorded: more sensitive to TLR3-triggered apoptosis | induces apoptosis; also recorded: more sensitive to TLR3-triggered apoptosis | more sensitive to TLR3-triggered apoptosis

— US20190292546A1, “TLR3 AGONIST FOR USE FOR INDUCING APOPTOSIS IN SENESCENT CANCER CELLS” (Centre Léon-Bérard, priority 2016, published 2019)
